# Active and inactive are the calls of the source.
# Assays:
# [1] = half-maximal inhibitory concentration for glucagon-like peptide-1 release, STC-1 cell line, dose-response (AID 1117345); format: functional, cell-based
# [2] = Glucagon-like peptide 1 release potency, NCI-H716 cell line, dose-response, half-maximal inhibitory concentration (AID 1117344); format: functional, cell-based
# [3] = target: T1, Acyl-homoserine lactone acylase PvdQ (Pseudomonas aeruginosa (strain LESB58), UniProt Q9I194); experiment: P. aeruginosa PvdQ acylase inhibitors, dose response, biochemical, fluorescence, plate reader and imaging, cherry-picks (AID 493231)
# T1 sequence (Q9I194 whole entry): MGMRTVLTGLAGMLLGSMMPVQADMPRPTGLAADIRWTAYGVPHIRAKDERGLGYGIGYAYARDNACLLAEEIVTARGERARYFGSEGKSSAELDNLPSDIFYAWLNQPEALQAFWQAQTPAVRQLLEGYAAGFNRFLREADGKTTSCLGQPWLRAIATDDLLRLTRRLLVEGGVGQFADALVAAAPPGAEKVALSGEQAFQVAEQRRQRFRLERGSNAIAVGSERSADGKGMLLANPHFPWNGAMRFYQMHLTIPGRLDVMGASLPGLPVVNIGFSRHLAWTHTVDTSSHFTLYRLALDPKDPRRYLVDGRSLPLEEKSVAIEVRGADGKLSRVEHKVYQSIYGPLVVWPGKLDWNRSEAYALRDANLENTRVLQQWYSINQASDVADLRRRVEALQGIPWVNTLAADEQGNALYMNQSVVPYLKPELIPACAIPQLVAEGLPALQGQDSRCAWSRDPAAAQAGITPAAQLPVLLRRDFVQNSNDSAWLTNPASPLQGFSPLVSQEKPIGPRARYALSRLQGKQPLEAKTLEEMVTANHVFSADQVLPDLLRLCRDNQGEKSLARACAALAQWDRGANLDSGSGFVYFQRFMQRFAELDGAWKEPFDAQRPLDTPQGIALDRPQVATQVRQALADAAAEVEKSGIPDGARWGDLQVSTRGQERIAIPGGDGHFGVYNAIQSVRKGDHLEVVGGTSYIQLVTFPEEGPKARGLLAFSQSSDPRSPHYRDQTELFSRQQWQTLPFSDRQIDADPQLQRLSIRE
# [4] = target: Voltage-dependent T-type calcium channel subunit alpha-1H (Homo sapiens, UniProt O95180); format: functional;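 also: channel activity triggered by adding a high calcium stimulation buffer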
# [5] = HepG2 cell cytotoxicity, dose response, cytotoxicity control, cherry-picked samples (AID 1159577); format: functional, cell-based
# [6] = P. falciparum Dd2 growth inhibitors, dose response, SYBR Green, cherry-picked samples (AID 1159567); format: functional, cell-based
# [7] = target: G-protein coupled receptor 55 (Homo sapiens, UniProt Q9Y2T6); experiment: GPR55 antagonists blocking LPI-driven arrestin recruitment, primary screen, imaging, U2OS, beta-arrestin-GFP, LPI agonist (AID 2013); format: functional;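 also: antagonist potency measured as reduced agonist-driven arrestin aggregation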
# [8] = THP-1 cell cytotoxicity, dose response, cytotoxicity control for Vif-APOBEC3G degradation inhibitor project, THP-1 cells (AID 1117359); format: functional; conditions: Human immunodeficiency virus 1, THP-1
# [9] = target: Luciferin 4-monooxygenase (Photinus pyralis, UniProt P08659); experiment: Counter Screen for Luciferase-based Assay Positives. [Related pubchem assays: 620, 618, 411 ]
# [10] = tested on: HT-1080; experiment: cytotoxicity in HT1080 fibrosarcoma cells, cell-based, fluorescence readout (AID 620); format: functional; conditions: Homo sapiens
# [11] = tested on: HeLa; experiment: HeLa cell cytotoxicity, dose response, cytotoxicity control for MITF activator project, CellTiter-Glo luminescence, cherry-pick samples (AID 540259); format: functional, cell-based; conditions: Homo sapiens
# [12] = cells; format: functional, cell-based
# [13] = cells; format: functional, cell-based; remark: listed apart in the source
# Voltage-dependent T-type calcium channel subunit alpha-1H, sequence (O95180 whole entry): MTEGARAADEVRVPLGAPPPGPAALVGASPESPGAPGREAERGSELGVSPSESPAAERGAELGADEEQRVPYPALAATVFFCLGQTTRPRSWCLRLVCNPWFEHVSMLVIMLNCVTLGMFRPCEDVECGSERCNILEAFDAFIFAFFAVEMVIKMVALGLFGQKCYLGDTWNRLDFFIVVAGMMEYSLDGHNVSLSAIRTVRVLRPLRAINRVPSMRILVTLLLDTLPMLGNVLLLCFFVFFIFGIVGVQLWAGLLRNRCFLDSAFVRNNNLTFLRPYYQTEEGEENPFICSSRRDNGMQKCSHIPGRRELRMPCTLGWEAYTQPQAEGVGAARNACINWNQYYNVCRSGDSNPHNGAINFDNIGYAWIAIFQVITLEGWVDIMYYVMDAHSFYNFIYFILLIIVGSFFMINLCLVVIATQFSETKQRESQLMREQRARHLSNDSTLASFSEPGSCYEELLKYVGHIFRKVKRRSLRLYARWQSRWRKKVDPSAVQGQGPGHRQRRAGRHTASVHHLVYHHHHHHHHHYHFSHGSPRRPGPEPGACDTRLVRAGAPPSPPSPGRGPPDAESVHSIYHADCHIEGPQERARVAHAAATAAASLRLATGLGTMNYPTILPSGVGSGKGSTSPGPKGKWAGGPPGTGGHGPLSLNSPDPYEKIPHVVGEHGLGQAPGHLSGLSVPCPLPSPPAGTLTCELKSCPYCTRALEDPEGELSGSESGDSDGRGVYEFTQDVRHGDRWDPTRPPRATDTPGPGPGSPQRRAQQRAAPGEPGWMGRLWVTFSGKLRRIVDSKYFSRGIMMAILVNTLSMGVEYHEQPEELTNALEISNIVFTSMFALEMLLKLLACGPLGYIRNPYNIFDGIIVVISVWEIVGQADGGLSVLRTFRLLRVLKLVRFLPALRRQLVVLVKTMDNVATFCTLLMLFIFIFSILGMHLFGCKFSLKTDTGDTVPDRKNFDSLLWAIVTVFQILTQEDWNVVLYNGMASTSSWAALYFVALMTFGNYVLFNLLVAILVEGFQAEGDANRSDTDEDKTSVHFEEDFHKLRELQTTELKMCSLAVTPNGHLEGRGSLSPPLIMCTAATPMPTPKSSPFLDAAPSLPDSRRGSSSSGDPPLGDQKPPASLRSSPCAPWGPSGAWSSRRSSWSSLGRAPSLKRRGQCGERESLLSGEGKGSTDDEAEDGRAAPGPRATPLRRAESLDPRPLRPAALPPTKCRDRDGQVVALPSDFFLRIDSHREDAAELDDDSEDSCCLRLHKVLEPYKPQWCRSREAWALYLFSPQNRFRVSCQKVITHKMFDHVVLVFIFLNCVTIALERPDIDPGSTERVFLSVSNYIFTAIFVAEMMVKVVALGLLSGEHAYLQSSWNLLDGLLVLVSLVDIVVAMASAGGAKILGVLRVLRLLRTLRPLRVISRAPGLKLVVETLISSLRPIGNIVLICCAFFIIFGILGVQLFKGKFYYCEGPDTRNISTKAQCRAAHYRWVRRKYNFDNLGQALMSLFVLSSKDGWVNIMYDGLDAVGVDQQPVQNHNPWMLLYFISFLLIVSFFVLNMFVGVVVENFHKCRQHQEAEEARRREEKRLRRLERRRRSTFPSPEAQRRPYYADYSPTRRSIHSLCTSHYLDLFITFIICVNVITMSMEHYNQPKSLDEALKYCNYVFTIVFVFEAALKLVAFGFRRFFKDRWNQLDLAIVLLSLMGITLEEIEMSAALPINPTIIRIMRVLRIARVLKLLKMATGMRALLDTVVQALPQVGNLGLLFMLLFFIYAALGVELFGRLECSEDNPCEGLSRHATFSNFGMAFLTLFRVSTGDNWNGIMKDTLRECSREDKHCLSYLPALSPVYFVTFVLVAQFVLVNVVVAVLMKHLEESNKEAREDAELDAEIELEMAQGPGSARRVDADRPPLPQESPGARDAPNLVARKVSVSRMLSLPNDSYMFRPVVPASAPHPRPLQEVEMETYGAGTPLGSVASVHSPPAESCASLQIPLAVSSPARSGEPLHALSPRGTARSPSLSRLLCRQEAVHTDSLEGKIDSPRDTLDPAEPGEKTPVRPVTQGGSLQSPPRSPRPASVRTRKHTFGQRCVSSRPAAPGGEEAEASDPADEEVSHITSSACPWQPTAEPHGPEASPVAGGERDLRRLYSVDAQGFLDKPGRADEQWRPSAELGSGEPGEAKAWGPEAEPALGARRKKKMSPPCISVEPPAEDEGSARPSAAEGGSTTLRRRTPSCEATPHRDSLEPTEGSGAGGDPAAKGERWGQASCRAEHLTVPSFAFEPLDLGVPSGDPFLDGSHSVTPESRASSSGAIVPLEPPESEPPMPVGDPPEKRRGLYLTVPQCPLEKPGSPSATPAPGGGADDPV
# G-protein coupled receptor 55, sequence (Q9Y2T6 whole entry): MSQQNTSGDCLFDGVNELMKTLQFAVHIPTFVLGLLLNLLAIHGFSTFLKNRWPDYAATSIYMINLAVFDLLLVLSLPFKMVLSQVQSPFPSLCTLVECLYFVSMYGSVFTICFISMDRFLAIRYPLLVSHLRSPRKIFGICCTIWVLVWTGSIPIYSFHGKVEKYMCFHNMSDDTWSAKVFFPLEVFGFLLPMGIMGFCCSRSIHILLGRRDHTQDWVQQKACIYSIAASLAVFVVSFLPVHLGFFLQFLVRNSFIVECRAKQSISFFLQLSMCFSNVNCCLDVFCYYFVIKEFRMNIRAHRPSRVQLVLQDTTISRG
# Luciferin 4-monooxygenase, sequence (P08659 whole entry): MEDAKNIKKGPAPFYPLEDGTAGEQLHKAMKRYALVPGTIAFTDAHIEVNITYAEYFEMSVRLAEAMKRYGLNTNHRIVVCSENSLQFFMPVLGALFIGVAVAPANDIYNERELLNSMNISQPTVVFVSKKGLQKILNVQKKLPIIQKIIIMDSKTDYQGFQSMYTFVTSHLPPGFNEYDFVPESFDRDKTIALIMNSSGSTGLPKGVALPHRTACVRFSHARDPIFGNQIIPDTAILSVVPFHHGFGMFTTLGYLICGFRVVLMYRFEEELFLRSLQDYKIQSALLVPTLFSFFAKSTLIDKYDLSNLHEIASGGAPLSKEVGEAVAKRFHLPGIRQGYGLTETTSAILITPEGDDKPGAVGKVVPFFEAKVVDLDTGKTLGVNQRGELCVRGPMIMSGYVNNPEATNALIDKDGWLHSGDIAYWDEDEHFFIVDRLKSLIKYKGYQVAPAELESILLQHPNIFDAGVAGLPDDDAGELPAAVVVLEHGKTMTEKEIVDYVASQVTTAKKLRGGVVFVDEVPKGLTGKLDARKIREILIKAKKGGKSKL
smiles,measurement,setting,value
CCCCCCCCCCCCOCCOCCOCCOCCOCCOCCOCCOCCOCCO,IC50,[1],30.4 µM (inactive)
same,IC50,[2],> 40 µM (inactive)
CC(C)(C)NC(=O)c1cc(Cl)ccc1[N+](=O)[O-],AC50,[3],11.5 µM (active)
Nc1ccc(Cl)cc1C(=O)c1ccccc1F,IC50,[1],> 40 µM (inactive)
same,IC50,[2],> 40 µM (inactive)
COc1ccccc1C(C#N)c1cccc(Cl)n1 (configuration not stated),AC50,[3],0.85 µM (active)
CCN(CCCNC(=O)CCc1nc(-c2ccc(C)cc2)no1)c1cccc(C)c1,EC50,[4],2.54 µM (active)
COc1ccc2c3c([nH]c2c1)[C@H](CO)N(Cc1ccc(Cl)cc1)CC31CN(Cc2nccs2)C1,AC50,[5],31.9 µM (active)
same,AC50,[6],4.85 µM (active)
Cc1ccc(CNCc2cc3c(C(C)(C)C)nn(-c4ccccc4)c3[nH]c2=O)cc1,IC50,[7],1.92 µM (active)
O=C(NNC(=O)c1ccccc1O)c1cc2ccccc2o1,CC50,[8],19.2 µM (active)
Cc1ccc(SCc2cn3c(C)csc3n2)cc1,EC50,[9],< 0.2 µM (active)
same,EC50,[10],> 50 µM (not active)
same,AC50,[11],54.9 µM (active)
Cc1sc(NC(=O)c2ccco2)c(CN2CCC(C)CC2)c1C,EC50,[12],> 350 µM (not active)
same,EC50,[4],7.78 µM (active)
same,EC50,[13],> 350 µM (not active)

# From ChEMBL document CHEMBL1201862, “PubChem BioAssay data set” (2004)
